Like-named read-outs stand apart in the source and are kept apart here. Each block holds one compound with its values, some of them ahead of it.
Legend:
Format in all cases: physicochemical
[1] = Shell stability on exposure to aqueous fill composition (half-shell integrity test, H.S.I.T.)
Method: The same tests were performed on gelatin capsules obtained from CARDINAL HEALTH.
It has been discovered that PEG has a beneficial effect upon the shell-stabilizing property of an aqueous fill composition comprising SAE-CD. FIG. 6a depicts a ternary graph correlating the concentration of SAE-CD, water and PEG in a fill composition to the H.S.I.T. rating of a soft shell capsule exposed to the fill composition. Aqueous fill solutions comprising differing amounts of PEG, SAE-CD and water were prepared. The stability tests were conducted as described below. The HFC soft gelatin capsules described herein were used. For a composition comprising 40% wt. SBE-CD, 40% wt. water and 20% wt. PEG, the shell was stable for greater than 5 days. For a composition comprising 35% wt. SBE-CD, 35% wt. water and 30% wt. PEG, the shell was stable for greater than 5 days. For a composition comprising 18% wt. SBE-CD, 42% wt. water and 40% wt. PEG, the shell was stable for greater than 5 days. Under each of the conditions tested, the control sample excluded SAE-CD, i.e., containing only water and PEG at the indicated concentration, and failed within 24 hours. About the same results were obtained for the HFB (FIG. 6b), LFB (FIG. 7a) and LFC (FIG. 7b) soft gelatin capsules. Increasing the SAE-CD concentration to values higher than those indicated further increases the shelf-life of the shell or provides an HSIT rating of at least 4. Stabilized aqueous fill composition-containing capsule formulations can be achieved with each capsule if the following fill compositions are used.

[2] = Hard shell capsule stability in aqueous SBE-CD solutions; details: hardcap
Method: Two types of hard shell capsules obtained from […] were evaluated. A conventional hard gelatin capsule (HCAP) and a hard HPMC (hydroxypropyl methylcellulose) capsule (VCAP) were evaluated under identical conditions using aqueous solutions differing in the concentration of SBE-CD (sulfobutyl ether cyclodextrin).

[3] = Shell stability toward aqueous fill composition, statements on soft gelatin capsules; details: for stability provided to capsules: about ≧50% wt.
[4] = H.S.I.T. rating versus SBE concentration (FIG. 3)
Description: FIG. 3 depicts a chart of the relationship between concentration of SBE cyclodextrin and H.S.I.T. (HALF-SHELL integrity test) rating for HGC (hard gelatin capsule From […]), HGS (hard gelatin capsule from SHIONOGI), HPC (hard hydroxypropyl methylcellulose shell from […]), and HPS (hard hydroxypropyl methylcellulose shell from SHIONOGI), and SSS (soft starch shell […]). The stability obtained was dependent upon the composition of the capsule gel.

[5] = Water activity measurement; details: about 20-25° C.
Method: Without being held bound to a particular mechanism, it is believed that the increasing the concentration of derivatized cyclodextrin present in the aqueous fill composition results in reduced water activity for the fill composition. The table below provides a summary of water activity versus concentration of cyclodextrin derivatives or some shell-stabilizing materials in water at about 20-25° C., or ambient temperature.
The values detailed above are approximate and can vary from instrument to instrument. These values were determined according to the procedure described herein on a water activity meter described herein. The numbers can also vary within the standard deviation of a particular instrument. It is also possible for the numbers to vary according to the accuracy and reproducibility of the instrument used as well as the method for calibrating the instrument with solution standards of known water activity.
Water activity was measured by placing a sample solution in a small, sealed container and determining the equilibrium humidity and temperature in the container. Instruments such as the HygroLab 3 from Rotronic Instrument Corp. , Huntington, N.Y. were used to measure the water activity. The humidity is determined using a thin film capacitive sensor in the headspace of the container. The temperature is determined using a Pt RTD 100 sensor. From these measurements the activity of water (Aw) is calculated by the instrument. The instrument has an accuracy of about ±0.015 Aw and a repeatability of about ±0.005 Aw. Carefully prepared salt-containing stock solutions of known concentration and water activity were used to calibrate the instrument prior to use.

[6] = 40% wt. cyclodextrin derivative in water, HFC
[7] = 50% wt. cyclodextrin derivative in water, HFC
[8] = 55% wt. cyclodextrin derivative in water, HFC
[9] = 60% wt. cyclodextrin derivative in water, HFC

Compound: O [Water]
content in fill composition for a stabilized capsule formulation ([1]; SAE-CD, PEG and water fill, HFC): ≦50%

content in fill composition for a stabilized capsule formulation [1]: ≧18%
time the shell was stable ([1]; 18% wt. SBE-CD, 42% wt. water and 40% wt. PEG, HFC): greater than 5 days
time the shell was stable ([1]; 35% wt. SBE-CD, 35% wt. water and 30% wt. PEG, HFC): greater than 5 days
time the shell was stable ([1]; 40% wt. SBE-CD, 40% wt. water and 20% wt. PEG, HFC): greater than 5 days
Increase in shell size [1, 6]: 3 × original
Observations [1, 6]: deformed
Time for failure [1, 6]: 4 days
Increase in shell size [1, 7]: 2 × original
Observations [1, 7]: shape intact
Time for failure [1, 7]: 7 days
Increase in shell size [1, 8]: No change
Observations [1, 8]: No deformities
Time for failure [1, 8]: ≧14 days
Increase in shell size [1, 9]: no change
Observations [1, 9]: no change
Time for failure [1, 9]: >21 days
Observations ([2]; 30% SBE solution): deformed/bends
failure time ([2]; 30% SBE solution): 24 h
size ([2]; 30% SBE solution): 2 × × length
Observations ([2]; 40% SBE solution): deformed/closed
failure time ([2]; 40% SBE solution): 48 h
size ([2]; 40% SBE solution): >2 × × width
Observations ([2]; 50% SBE solution): deformed/closed
failure time ([2]; 50% SBE solution): 48 h
size ([2]; 50% SBE solution): 2 × × width
Observations ([2]; 60% SBE solution): closed/stuck
failure time ([2]; 60% SBE solution): 96 h
size ([2]; 60% SBE solution): 2 × × width
stability provided to capsules ([3]; LFB and LFC soft gelatin capsules as printed, FIG. 2): at least a one week stability
stability provided to capsules ([3]; LFB and LFC soft gelatin capsules, FIG. 1): at least a one week stability
water activity of fill composition that forms a stable soft gelatin capsule formulation ([3]; fill composition comprising SBE-CD, PEG and water, FIG. 8): ≤ 0.90±0.02
water activity of fill composition that provides an increase in the stability of the shell ([3]; soft-gelatin capsule, the agent alone in water): less than 0.95
stability provided to capsules ([4]; SBE concentration of about ≧60% wt., hard gelatin capsules): at least a one-week stability
stability provided to capsules ([4]; hard hydroxypropyl methylcellulose capsules): at least a two-week stability
Water Activity (approximate values) ([5]; 10 % w/w in water): ~0.98
Water Activity (approximate values) ([5]; 20 % w/w in water): ~0.98
Water Activity (approximate values) ([5]; 30 % w/w in water): ~0.97
Water Activity (approximate values) ([5]; 40 % w/w in water): ~0.95
Water Activity (approximate values) ([5]; 50 % w/w in water): ~0.91
Water Activity (approximate values) ([5]; 55 % w/w in water): ~0.88
Water Activity (approximate values) ([5]; 60 % w/w in water): ~0.86
Water Activity (approximate values) ([5]; 70 % w/w in water): ~0.76
Compound: sulfobutyl ether cyclodextrin [SAE-CD]
shelf-life of soft gelatin capsules ([3]; 50% wt. or more based upon total weight of water and SAE-CD or of the fill composition): at least one week
stability of shell toward fill composition ([3]; soft gelatin shells from BANNER PHARMACAPS, less than 40% by wt. SAE-CD): unstable
stability of shell toward fill composition ([3]; soft gelatin shells from BANNER PHARMACAPS, ≧50% wt. SAE-CD): stable for at least one week
stability of shell toward fill composition ([3]; soft gelatin shells from BANNER PHARMACAPS, ≧55% wt. SAE-CD): stable for at least ten days
stability of shell toward fill composition ([3]; soft gelatin shells from BANNER PHARMACAPS, ≧60% wt. SAE-CD): stable for at least three weeks
stability of shell toward fill composition ([3]; soft gelatin shells from CARDINAL HEALTH, less than 40% by wt. SAE-CD): unstable
stability of shell toward fill composition ([3]; soft gelatin shells from CARDINAL HEALTH, ≧50% wt. SAE-CD): stable for at least one week
stability of shell toward fill composition ([3]; soft gelatin shells from CARDINAL HEALTH, ≧55% wt. SAE-CD): stable for at least two weeks
time the capsules were stable ([3]; soft gelatin shells from CARDINAL HEALTH, ≧60% wt. SAE-CD): at least 21 days

From patent US7829114B2, “Capsules containing aqueous fill compositions stabilized with derivatized cyclodextrin” (CyDex Pharmaceuticals, Inc., priority 2002, dated 2010)
